Assay results reported in ChEMBL document CHEMBL1770059, “Identification of chemicals to inhibit the kinase activity of leucine-rich repeat kinase 2 (LRRK2), a Parkinson's disease-associated protein” (Bioorg Med Chem Lett, 2011).

Assays:
[1] = biological target: T1, Serine/threonine-protein kinase TAO2 (Homo sapiens) (UniProt Q9UL54); assay: Inhibition of TAO2 assessed as residual activity of enzyme at 10 uM
T1 sequence (whole entry): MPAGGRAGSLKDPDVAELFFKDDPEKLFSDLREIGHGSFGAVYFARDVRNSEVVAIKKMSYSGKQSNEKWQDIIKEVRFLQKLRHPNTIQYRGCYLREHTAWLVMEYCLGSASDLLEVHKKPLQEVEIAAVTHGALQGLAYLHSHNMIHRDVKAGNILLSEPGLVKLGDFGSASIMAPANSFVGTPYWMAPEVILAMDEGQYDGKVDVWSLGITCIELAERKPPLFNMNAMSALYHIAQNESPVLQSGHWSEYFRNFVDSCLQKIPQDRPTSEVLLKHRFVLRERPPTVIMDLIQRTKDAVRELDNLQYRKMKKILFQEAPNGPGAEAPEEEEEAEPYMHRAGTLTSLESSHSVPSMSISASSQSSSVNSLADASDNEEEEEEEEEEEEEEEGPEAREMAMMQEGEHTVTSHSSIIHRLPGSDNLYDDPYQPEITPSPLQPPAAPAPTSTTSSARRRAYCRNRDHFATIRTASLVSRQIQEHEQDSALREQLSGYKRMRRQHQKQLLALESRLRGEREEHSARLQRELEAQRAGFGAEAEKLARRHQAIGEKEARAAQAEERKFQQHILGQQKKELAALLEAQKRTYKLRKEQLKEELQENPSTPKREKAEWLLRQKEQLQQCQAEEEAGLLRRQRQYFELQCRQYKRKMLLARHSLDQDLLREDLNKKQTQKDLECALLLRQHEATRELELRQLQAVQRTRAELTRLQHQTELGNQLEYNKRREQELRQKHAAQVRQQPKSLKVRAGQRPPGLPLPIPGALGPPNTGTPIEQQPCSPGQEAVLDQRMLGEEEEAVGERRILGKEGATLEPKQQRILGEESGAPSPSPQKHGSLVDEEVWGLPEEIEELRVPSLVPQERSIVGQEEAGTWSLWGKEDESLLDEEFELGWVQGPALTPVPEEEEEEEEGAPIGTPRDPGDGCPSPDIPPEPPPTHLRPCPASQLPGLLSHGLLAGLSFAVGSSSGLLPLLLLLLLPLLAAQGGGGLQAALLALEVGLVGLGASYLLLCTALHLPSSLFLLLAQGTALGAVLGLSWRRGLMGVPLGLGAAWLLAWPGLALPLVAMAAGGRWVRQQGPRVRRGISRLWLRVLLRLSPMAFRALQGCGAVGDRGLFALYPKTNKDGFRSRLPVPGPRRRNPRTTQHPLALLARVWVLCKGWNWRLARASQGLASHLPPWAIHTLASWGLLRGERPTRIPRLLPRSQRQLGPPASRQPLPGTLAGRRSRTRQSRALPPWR

[2] = test system: Leucine-rich repeat serine/threonine-protein kinase 2 (Homo sapiens), Q5S007 [G2019S]; assay: Inhibition of LRRK2 G2019S mutant expressed in mouse SN4741 cells assessed as reduction in hydrogen peroxide-induced neurotoxicity at 10 uM by measuring cell survival after 48 hrs by crystal violet assay relative to control; type: cell-based
[3] = biological target: T1, Serine/threonine-protein kinase TAO2 (Homo sapiens); assay: Inhibition of TAO2 assessed as residual activity of enzyme at 25 uM
[4] = biological target: Mitogen-activated protein kinase kinase kinase 9 (Homo sapiens) (UniProt P80192); assay: Inhibition of MLK1 assessed as residual activity of enzyme at 25 uM
[5] = biological target: T2, Mitogen-activated protein kinase kinase kinase 7 (Homo sapiens) (UniProt O43318); assay: Inhibition of TAK1 assessed as residual activity of enzyme at 10 uM
T2 sequence (whole entry): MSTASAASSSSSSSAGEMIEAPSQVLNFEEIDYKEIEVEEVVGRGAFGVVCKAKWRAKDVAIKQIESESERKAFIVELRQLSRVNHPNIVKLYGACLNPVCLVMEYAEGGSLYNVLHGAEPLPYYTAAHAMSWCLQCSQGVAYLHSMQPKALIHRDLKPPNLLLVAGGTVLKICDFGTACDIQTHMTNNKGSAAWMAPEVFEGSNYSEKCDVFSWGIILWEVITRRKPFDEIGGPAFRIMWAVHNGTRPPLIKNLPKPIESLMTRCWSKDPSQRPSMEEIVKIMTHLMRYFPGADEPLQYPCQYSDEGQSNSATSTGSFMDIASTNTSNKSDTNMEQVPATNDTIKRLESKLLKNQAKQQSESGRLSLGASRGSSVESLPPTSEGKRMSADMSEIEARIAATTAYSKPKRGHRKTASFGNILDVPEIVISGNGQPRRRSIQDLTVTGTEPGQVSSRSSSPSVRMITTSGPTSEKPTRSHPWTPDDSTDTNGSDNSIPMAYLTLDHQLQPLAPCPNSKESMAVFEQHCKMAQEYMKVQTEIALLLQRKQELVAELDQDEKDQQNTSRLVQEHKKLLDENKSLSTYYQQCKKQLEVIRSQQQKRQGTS

Mitogen-activated protein kinase kinase kinase 9 (Homo sapiens), sequence (P80192 whole entry, looked up): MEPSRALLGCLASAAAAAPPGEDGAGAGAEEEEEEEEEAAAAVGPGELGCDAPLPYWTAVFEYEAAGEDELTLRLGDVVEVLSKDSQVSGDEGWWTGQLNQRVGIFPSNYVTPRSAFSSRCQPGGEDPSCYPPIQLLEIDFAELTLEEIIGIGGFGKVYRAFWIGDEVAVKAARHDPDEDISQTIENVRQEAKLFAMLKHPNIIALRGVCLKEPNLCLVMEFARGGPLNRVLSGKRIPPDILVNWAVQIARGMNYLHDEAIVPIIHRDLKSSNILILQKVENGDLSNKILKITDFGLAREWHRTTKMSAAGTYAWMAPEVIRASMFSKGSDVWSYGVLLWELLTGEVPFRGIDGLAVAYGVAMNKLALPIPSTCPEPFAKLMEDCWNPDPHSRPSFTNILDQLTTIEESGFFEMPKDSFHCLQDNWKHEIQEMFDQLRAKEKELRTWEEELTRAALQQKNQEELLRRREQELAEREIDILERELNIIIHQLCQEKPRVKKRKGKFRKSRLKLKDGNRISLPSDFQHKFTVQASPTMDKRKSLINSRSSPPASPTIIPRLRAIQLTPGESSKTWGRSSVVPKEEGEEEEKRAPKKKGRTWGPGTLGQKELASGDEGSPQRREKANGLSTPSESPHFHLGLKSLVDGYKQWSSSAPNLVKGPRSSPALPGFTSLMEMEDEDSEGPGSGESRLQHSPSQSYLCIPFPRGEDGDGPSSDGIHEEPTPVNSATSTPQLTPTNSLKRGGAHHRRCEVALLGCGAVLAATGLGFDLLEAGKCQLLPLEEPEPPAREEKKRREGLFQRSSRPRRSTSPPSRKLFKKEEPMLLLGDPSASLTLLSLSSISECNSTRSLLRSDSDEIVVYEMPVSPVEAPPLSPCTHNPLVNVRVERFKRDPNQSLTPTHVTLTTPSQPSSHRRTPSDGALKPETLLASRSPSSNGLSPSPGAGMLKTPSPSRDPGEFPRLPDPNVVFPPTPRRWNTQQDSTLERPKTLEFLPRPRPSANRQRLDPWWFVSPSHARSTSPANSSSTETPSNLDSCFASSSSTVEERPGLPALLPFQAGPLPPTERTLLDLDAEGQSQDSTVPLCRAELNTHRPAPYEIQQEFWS
Leucine-rich repeat serine/threonine-protein kinase 2 (Homo sapiens), Q5S007 [G2019S], sequence (Q5S007 whole entry G2019S): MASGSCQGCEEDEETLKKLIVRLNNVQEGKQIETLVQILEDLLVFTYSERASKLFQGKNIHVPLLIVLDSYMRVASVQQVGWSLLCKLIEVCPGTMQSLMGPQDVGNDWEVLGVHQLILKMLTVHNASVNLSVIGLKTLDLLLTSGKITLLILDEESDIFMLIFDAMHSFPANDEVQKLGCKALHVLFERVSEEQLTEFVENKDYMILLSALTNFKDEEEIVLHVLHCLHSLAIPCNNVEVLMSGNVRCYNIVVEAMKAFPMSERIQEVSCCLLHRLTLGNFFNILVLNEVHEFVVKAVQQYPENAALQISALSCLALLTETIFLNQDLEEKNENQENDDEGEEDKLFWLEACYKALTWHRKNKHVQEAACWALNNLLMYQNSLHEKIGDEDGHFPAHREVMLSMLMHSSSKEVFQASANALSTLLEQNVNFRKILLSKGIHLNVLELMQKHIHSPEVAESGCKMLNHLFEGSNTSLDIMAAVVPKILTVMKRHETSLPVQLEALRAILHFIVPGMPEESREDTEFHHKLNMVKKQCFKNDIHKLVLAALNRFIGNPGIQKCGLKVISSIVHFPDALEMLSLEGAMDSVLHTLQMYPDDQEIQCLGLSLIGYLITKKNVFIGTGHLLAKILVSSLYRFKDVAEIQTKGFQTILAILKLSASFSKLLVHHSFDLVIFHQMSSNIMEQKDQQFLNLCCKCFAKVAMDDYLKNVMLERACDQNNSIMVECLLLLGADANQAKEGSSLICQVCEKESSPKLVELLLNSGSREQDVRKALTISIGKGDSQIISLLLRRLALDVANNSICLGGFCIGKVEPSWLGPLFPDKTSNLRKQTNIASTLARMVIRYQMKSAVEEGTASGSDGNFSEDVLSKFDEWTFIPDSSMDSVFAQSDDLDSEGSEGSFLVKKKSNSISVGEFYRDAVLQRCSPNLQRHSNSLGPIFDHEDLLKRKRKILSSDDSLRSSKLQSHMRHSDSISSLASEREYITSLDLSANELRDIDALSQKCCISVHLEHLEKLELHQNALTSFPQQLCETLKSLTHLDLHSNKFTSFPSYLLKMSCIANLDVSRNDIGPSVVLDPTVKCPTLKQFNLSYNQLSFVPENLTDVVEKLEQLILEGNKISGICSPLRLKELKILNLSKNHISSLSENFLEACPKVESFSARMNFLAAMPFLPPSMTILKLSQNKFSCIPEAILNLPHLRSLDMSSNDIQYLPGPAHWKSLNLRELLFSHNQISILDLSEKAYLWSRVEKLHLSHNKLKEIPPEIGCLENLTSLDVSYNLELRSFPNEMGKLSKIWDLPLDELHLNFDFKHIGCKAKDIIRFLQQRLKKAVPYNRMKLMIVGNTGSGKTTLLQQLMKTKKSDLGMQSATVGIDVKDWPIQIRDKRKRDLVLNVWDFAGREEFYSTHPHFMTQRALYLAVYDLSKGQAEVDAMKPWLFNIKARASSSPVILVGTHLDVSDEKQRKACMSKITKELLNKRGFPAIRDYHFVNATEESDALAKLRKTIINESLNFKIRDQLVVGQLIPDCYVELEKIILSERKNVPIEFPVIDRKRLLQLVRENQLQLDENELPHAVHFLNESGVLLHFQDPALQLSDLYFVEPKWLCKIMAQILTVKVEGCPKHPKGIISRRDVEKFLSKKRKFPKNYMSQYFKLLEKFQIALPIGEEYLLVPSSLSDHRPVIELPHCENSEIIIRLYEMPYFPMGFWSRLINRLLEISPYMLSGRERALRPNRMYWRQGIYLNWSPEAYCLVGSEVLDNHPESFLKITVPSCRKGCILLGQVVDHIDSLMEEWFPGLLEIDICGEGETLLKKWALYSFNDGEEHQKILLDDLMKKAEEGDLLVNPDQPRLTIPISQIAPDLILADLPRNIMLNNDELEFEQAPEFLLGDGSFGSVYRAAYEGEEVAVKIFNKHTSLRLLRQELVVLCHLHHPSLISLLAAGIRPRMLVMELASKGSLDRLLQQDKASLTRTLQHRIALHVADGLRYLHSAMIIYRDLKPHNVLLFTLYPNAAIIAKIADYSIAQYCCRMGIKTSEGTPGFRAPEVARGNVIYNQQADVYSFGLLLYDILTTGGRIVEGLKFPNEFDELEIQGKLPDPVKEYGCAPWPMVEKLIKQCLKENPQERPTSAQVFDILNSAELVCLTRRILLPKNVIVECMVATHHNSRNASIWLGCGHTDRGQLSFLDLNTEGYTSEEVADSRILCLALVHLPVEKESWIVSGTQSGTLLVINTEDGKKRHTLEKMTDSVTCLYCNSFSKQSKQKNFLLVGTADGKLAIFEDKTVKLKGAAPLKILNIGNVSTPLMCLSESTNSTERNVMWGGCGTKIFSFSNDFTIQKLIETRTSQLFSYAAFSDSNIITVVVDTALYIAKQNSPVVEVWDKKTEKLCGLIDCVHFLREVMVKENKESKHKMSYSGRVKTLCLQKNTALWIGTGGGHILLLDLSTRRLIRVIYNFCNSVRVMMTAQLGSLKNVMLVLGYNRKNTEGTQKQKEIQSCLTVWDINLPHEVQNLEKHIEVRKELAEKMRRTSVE

- Activity [1]: 89%
- Activity [3]: 84%
- Activity [4]: 12%
- Activity [5]: 68%
Structure (SMILES): Cc1cc(N/N=C/c2ccncc2)nc2ccccc12
- Activity [2]: 50%
